Measurements reported in the NIST ThermoML archive (doi:10.1016/j.jct.2018.04.015).
± gives the expanded uncertainty stated by the source.

Experiment: mn = molality of the nth substance listed, in mol/kg
Conditions: 100 kPa, Liquid; for viscosity: Capillary tube (Ostwald / Ubbelohde) method; for mass density: Vibrating tube method

C[N+](C)(C)CCO.[Cl-] [choline chloride] + O
viscosity (293.15 K, m1 = 0.09081): 1.034 ± 0.022 mPa·s | viscosity (293.15 K, m1 = 0.1494): 1.049 ± 0.022 mPa·s | viscosity (293.15 K, m1 = 0.2056): 1.062 ± 0.022 mPa·s | viscosity (293.15 K, m1 = 0.2998): 1.082 ± 0.023 mPa·s | viscosity (293.15 K, m1 = 0.3511): 1.093 ± 0.023 mPa·s | viscosity (293.15 K, m1 = 0.4226): 1.107 ± 0.023 mPa·s | viscosity (293.15 K, m1 = 0.489): 1.119 ± 0.023 mPa·s | mass density (293.15 K, m1 = 0.08502): 999.63 ± 1.5 kg/m3 | mass density (293.15 K, m1 = 0.15): 1000.68 ± 1.5 kg/m3 | mass density (293.15 K, m1 = 0.2002): 1001.48 ± 1.5 kg/m3 | mass density (293.15 K, m1 = 0.2501): 1002.25 ± 1.5 kg/m3 | mass density (293.15 K, m1 = 0.3003): 1003.03 ± 1.5 kg/m3 | mass density (293.15 K, m1 = 0.3503): 1003.78 ± 1.5 kg/m3 | mass density (293.15 K, m1 = 0.3997): 1004.52 ± 1.5 kg/m3 | mass density (293.15 K, m1 = 0.4502): 1005.27 ± 1.5 kg/m3 | mass density (293.15 K, m1 = 0.499): 1005.99 ± 1.5 kg/m3 | viscosity (298.15 K, m1 = 0.09081): 0.916 ± 0.019 mPa·s | viscosity (298.15 K, m1 = 0.1494): 0.929 ± 0.019 mPa·s | viscosity (298.15 K, m1 = 0.2056): 0.941 ± 0.02 mPa·s | viscosity (298.15 K, m1 = 0.2998): 0.959 ± 0.02 mPa·s | viscosity (298.15 K, m1 = 0.3511): 0.968 ± 0.02 mPa·s | viscosity (298.15 K, m1 = 0.4226): 0.981 ± 0.02 mPa·s | viscosity (298.15 K, m1 = 0.489): 0.993 ± 0.021 mPa·s | mass density (298.15 K, m1 = 0.08502): 998.44 ± 1.5 kg/m3 | mass density (298.15 K, m1 = 0.15): 999.47 ± 1.5 kg/m3 | mass density (298.15 K, m1 = 0.2002): 1000.25 ± 1.5 kg/m3 | mass density (298.15 K, m1 = 0.2501): 1001 ± 1.5 kg/m3 | mass density (298.15 K, m1 = 0.3003): 1001.75 ± 1.5 kg/m3 | mass density (298.15 K, m1 = 0.3503): 1002.49 ± 1.5 kg/m3 | mass density (298.15 K, m1 = 0.3997): 1003.22 ± 1.5 kg/m3 | mass density (298.15 K, m1 = 0.4502): 1003.94 ± 1.5 kg/m3 | mass density (298.15 K, m1 = 0.499): 1004.64 ± 1.5 kg/m3 | viscosity (303.15 K, m1 = 0.09081): 0.819 ± 0.017 mPa·s | viscosity (303.15 K, m1 = 0.1494): 0.831 ± 0.017 mPa·s | viscosity (303.15 K, m1 = 0.2056): 0.841 ± 0.018 mPa·s | viscosity (303.15 K, m1 = 0.2998): 0.858 ± 0.018 mPa·s | viscosity (303.15 K, m1 = 0.3511): 0.867 ± 0.018 mPa·s | viscosity (303.15 K, m1 = 0.4226): 0.878 ± 0.018 mPa·s | viscosity (303.15 K, m1 = 0.489): 0.889 ± 0.019 mPa·s | mass density (303.15 K, m1 = 0.08502): 997.02 ± 1.5 kg/m3 | mass density (303.15 K, m1 = 0.15): 998.03 ± 1.5 kg/m3 | mass density (303.15 K, m1 = 0.2002): 998.79 ± 1.5 kg/m3 | mass density (303.15 K, m1 = 0.2501): 999.53 ± 1.5 kg/m3 | mass density (303.15 K, m1 = 0.3003): 1000.27 ± 1.5 kg/m3 | mass density (303.15 K, m1 = 0.3503): 1000.99 ± 1.5 kg/m3 | mass density (303.15 K, m1 = 0.3997): 1001.7 ± 1.5 kg/m3 | mass density (303.15 K, m1 = 0.4502): 1002.41 ± 1.5 kg/m3 | mass density (303.15 K, m1 = 0.499): 1003.08 ± 1.5 kg/m3 | viscosity (308.15 K, m1 = 0.09081): 0.737 ± 0.015 mPa·s | viscosity (308.15 K, m1 = 0.1494): 0.748 ± 0.016 mPa·s | viscosity (308.15 K, m1 = 0.2056): 0.757 ± 0.016 mPa·s | viscosity (308.15 K, m1 = 0.2998): 0.772 ± 0.016 mPa·s | viscosity (308.15 K, m1 = 0.3511): 0.78 ± 0.016 mPa·s | viscosity (308.15 K, m1 = 0.4226): 0.791 ± 0.017 mPa·s | viscosity (308.15 K, m1 = 0.489): 0.801 ± 0.017 mPa·s | mass density (308.15 K, m1 = 0.08502): 995.39 ± 1.5 kg/m3 | mass density (308.15 K, m1 = 0.15): 996.38 ± 1.5 kg/m3 | mass density (308.15 K, m1 = 0.2002): 997.13 ± 1.5 kg/m3 | mass density (308.15 K, m1 = 0.2501): 997.85 ± 1.5 kg/m3 | mass density (308.15 K, m1 = 0.3003): 998.57 ± 1.5 kg/m3 | mass density (308.15 K, m1 = 0.3503): 999.27 ± 1.5 kg/m3 | mass density (308.15 K, m1 = 0.3997): 999.95 ± 1.5 kg/m3 | mass density (308.15 K, m1 = 0.4502): 1000.64 ± 1.5 kg/m3 | mass density (308.15 K, m1 = 0.499): 1001.3 ± 1.5 kg/m3 | viscosity (313.15 K, m1 = 0.09081): 0.668 ± 0.014 mPa·s | viscosity (313.15 K, m1 = 0.1494): 0.678 ± 0.014 mPa·s | viscosity (313.15 K, m1 = 0.2056): 0.686 ± 0.014 mPa·s | viscosity (313.15 K, m1 = 0.2998): 0.7 ± 0.015 mPa·s | viscosity (313.15 K, m1 = 0.3511): 0.708 ± 0.015 mPa·s | viscosity (313.15 K, m1 = 0.4226): 0.718 ± 0.015 mPa·s | viscosity (313.15 K, m1 = 0.489): 0.728 ± 0.015 mPa·s | mass density (313.15 K, m1 = 0.08502): 993.55 ± 1.5 kg/m3 | mass density (313.15 K, m1 = 0.15): 994.52 ± 1.5 kg/m3 | mass density (313.15 K, m1 = 0.2002): 995.25 ± 1.5 kg/m3 | mass density (313.15 K, m1 = 0.2501): 995.96 ± 1.5 kg/m3 | mass density (313.15 K, m1 = 0.3003): 996.66 ± 1.5 kg/m3 | mass density (313.15 K, m1 = 0.3503): 997.34 ± 1.5 kg/m3 | mass density (313.15 K, m1 = 0.3997): 998 ± 1.5 kg/m3 | mass density (313.15 K, m1 = 0.4502): 998.67 ± 1.5 kg/m3 | mass density (313.15 K, m1 = 0.499): 999.3 ± 1.5 kg/m3
